Laboratory results published in publication PMC9525273 (Nature Communications, 2022).
Several values for one entry are separate records, joined by “and”; a condition that tells them apart may be missing. Identical values can stand only once. Like-named read-outs stand apart in the source and are kept apart here.

Assays:
[1] = tested on: extracellular T. gondii tachyzoites expressing TgATP4^G419S-HA; test: [Na+]cyt measurement (SBFI), Na+ dysregulation; assay type: cell-based, Toxoplasma gondii; set-up: Final [Na+]cyt reached: unit not given here; details: TgATP4G419S-HA; for IC50: Toxoplasma gondii
Method: (§1) The ratio of the fluorescence intensity recorded at 340 nm and 380 nm (with an emission wavelength of 515 nm) was converted to [Na^+]cyt using a calibration procedure that entailed suspending parasites in solutions of varying [Na^+] containing ionophores. Fluorescence measurements and calibrations were performed at 37 °C, either with individual 1 mL suspensions using a PerkinElmer LS 50B fluorescence spectrometer (for resting [Na^+]cyt measurements for which the data are shown in Supplementary Fig. 7) or in 96-well plates using a Tecan Infinite M1000 PRO plate reader with i-control (version 1.12) software (all other [Na^+]cyt measurements).

[2] = tested on: extracellular T. gondii tachyzoites expressing TgATP4^WT; test: [Na+]cyt measurement (SBFI), Na+ dysregulation; assay type: cell-based, Toxoplasma gondii; set-up: Final [Na+]cyt reached: unit not given here
Method: as §1

[3] = tested on: parasite lines with a G358S mutation in PfATP4; test: P. falciparum proliferation assays, statements on all lines with the G358S mutation; assay type: cell-based, Plasmodium falciparum; details: G358S lines vs PfATP4 wild-type controls
Method: Two types of parasite proliferation assays were employed in this study, with both yielding highly consistent results. For the NF54-based lines and Dd2-B2-PfATP4^G358S and its parent, assays were initiated with cultures containing predominantly ring-stage parasites with a parasitaemia of 0.3% and a haematocrit of 1%. All assays using NF54 were performed in culture media containing 10% O + human serum. The duration of the assays was 72 h and the concentration of DMSO was <0.5% (v/v). Serial dilutions of the test compounds were performed using a Tecan D300e digital dispenser, with parasite cultures added manually. Parasite survival was assessed by flow cytometry on an Intellicyt iQue3 (Essen Bioscience), with 1× SYBR Green I (Invitrogen) and 200 nM MitoTracker Deep Red FM (Invitrogen) used to stain the nucleus and the mitochondria in live parasites, respectively. The gating strategy used to quantify parasite survival, performed using FlowJo version 10 (FlowJo LLC.), is illustrated in Supplementary Fig. 9. IC50 and IC90 values were calculated by linear interpolation of the dose-response data.
For experiments with all other parasites, the effects of compounds of interest on parasite proliferation was measured in 96-well plates containing serial dilutions of the compounds in culture medium, with a fluorescent DNA-intercalating dye used to detect surviving parasites. The assays were initiated with erythrocytes infected with predominantly ring-stage parasites, and the starting parasitaemia and haematocrit were both 1%. […] Fluorescence was measured using a FLUOstar OPTIMA plate reader (BMG LABTECH), with OPTIMA version 2.20R2 and MARS Data Analysis Software version 3.01 R2 (BMG LABTECH).

C[C@H]1Cc2c([nH]c3cc(Cl)c(F)cc23)[C@@]2(N1)C(=O)Nc1ccc(Cl)cc12 [Cipargamin]
Final [Na+]cyt reached ([1]; [cipargamin] 7.8 nM, MEAN): 14.1
Final [Na+]cyt reached ([1]; [cipargamin] 7.8 nM, single experiments): 13.4 and 14.3 and 14.5
Final [Na+]cyt reached ([1]; [cipargamin] 15.6 nM, MEAN): 15.4
Final [Na+]cyt reached ([1]; [cipargamin] 15.6 nM, single experiments): 14.1 and 15.1 and 17.0
Final [Na+]cyt reached ([1]; [cipargamin] 31.3 nM, MEAN): 15.4
Final [Na+]cyt reached ([1]; [cipargamin] 31.3 nM, single experiments): 13.9 and 14.5 and 17.9
Final [Na+]cyt reached ([1]; [cipargamin] 62.5 nM, MEAN): 14.3
Final [Na+]cyt reached ([1]; [cipargamin] 62.5 nM, single experiments): 13.2 and 14.1 and 15.7
Final [Na+]cyt reached ([1]; [cipargamin] 250 nM, MEAN): 13.7
Final [Na+]cyt reached ([1]; [cipargamin] 250 nM, single experiments): 13.6 and 14.5 and 12.9
Final [Na+]cyt reached ([1]; [cipargamin] 500 nM, MEAN): 14.5
Final [Na+]cyt reached ([1]; [cipargamin] 500 nM, single experiments): 12.6 and 13.5 and 17.5
Final [Na+]cyt reached ([1]; [cipargamin] 1000 nM, MEAN): 16.4
Final [Na+]cyt reached ([1]; [cipargamin] 1000 nM, single experiments): 14.3 and 16.7 and 18.1
Final [Na+]cyt reached ([1]; [cipargamin] 2000 nM, MEAN): 17.1
Final [Na+]cyt reached ([1]; [cipargamin] 2000 nM, single experiments): 13.3 and 17.0 and 20.8
Final [Na+]cyt reached ([1]; [cipargamin] 4000 nM, MEAN): 24.3
Final [Na+]cyt reached ([1]; [cipargamin] 4000 nM, single experiments): 22.1 and 21.4 and 29.4
Final [Na+]cyt reached ([1]; [cipargamin] 8000 nM, MEAN): 34.2
Final [Na+]cyt reached ([1]; [cipargamin] 8000 nM, single experiments): 32.0 and 31.0 and 39.5
IC50 ([1]; 1.5 h, ~90 min exposure, 37 °C, pH 7.1, read-out: IC50 for Na+ dysregulation): > 8000 nM
IC50 ([1]; MEAN, source data of Table 1 (nM there), read-out: IC50 for Na+ dysregulation, MEAN): > 8000 nM
IC50 ([1]; single experiments, source data of Table 1 (nM there), read-out: IC50 for Na+ dysregulation): > 8000 nM
IC50 ([2]; Toxoplasma gondii, 1.5 h, pH 7.1, WT T. gondii (TgATP4WT), ~90 min exposure, 37 °C, pH 7.1, mean ± SEM, read-out: IC50 for Na+ dysregulation): 110 ± 3 nM
IC50 ([2]; Toxoplasma gondii, WT T. gondii, MEAN, source data of Table 1 (nM there), read-out: IC50 for Na+ dysregulation, MEAN): 110 nM
IC50 ([2]; Toxoplasma gondii, WT T. gondii, single experiments, source data of Table 1 (nM there), read-out: IC50 for Na+ dysregulation): 103 nM
Final [Na+]cyt reached ([2]; WT T. gondii, [cipargamin] 0.5 nM, MEAN): 15.8
Final [Na+]cyt reached ([2]; WT T. gondii, [cipargamin] 0.5 nM, single experiments): 14.2 and 16.3 and 16.8
Final [Na+]cyt reached ([2]; WT T. gondii, [cipargamin] 1.0 nM, MEAN): 16.2
Final [Na+]cyt reached ([2]; WT T. gondii, [cipargamin] 1.0 nM, single experiments): 15.5 and 17.0 and 16.2
Final [Na+]cyt reached ([2]; WT T. gondii, [cipargamin] 2.0 nM, MEAN): 14.1
Final [Na+]cyt reached ([2]; WT T. gondii, [cipargamin] 3.9 nM, MEAN): 20.7
Final [Na+]cyt reached ([2]; WT T. gondii, [cipargamin] 3.9 nM, single experiments): 19.6 and 20.6 and 21.8
Final [Na+]cyt reached ([2]; WT T. gondii, [cipargamin] 7.8 nM, MEAN): 23.3
Final [Na+]cyt reached ([2]; WT T. gondii, [cipargamin] 7.8 nM, single experiments): 25.2 and 22.3 and 22.5
Final [Na+]cyt reached ([2]; WT T. gondii, [cipargamin] 15.6 nM, MEAN): 26.7
Final [Na+]cyt reached ([2]; WT T. gondii, [cipargamin] 15.6 nM, single experiments): 29.0 and 26.8 and 24.3
Final [Na+]cyt reached ([2]; WT T. gondii, [cipargamin] 31.3 nM, MEAN): 34.0
Final [Na+]cyt reached ([2]; WT T. gondii, [cipargamin] 31.3 nM, single experiments): 35.7 and 36.9 and 29.4
Final [Na+]cyt reached ([2]; WT T. gondii, [cipargamin] 62.5 nM, MEAN): 44.2
Final [Na+]cyt reached ([2]; WT T. gondii, [cipargamin] 62.5 nM, single experiments): 43.2 and 51.7 and 37.6
Final [Na+]cyt reached ([2]; WT T. gondii, [cipargamin] 250 nM, MEAN): 75.6
Final [Na+]cyt reached ([2]; WT T. gondii, [cipargamin] 250 nM, single experiments): 72.9 and 86.9 and 66.9
Final [Na+]cyt reached ([2]; WT T. gondii, [cipargamin] 500 nM, MEAN): 86.6
Final [Na+]cyt reached ([2]; WT T. gondii, [cipargamin] 500 nM, single experiments): 82.0 and 102.0 and 75.9
Final [Na+]cyt reached ([2]; WT T. gondii, [cipargamin] 1000 nM, MEAN): 91.2
Final [Na+]cyt reached ([2]; WT T. gondii, [cipargamin] 1000 nM, single experiments): 85.2 and 107.2 and 81.2
IC50 ([2]; WT T. gondii, single experiments, source data of Table 1 (nM there), read-out: IC50 for Na+ dysregulation): 113 nM

C[C@H]1[C@@H](O)O[C@@H]2O[C@@]3(C)CC[C@H]4[C@H](C)CC[C@@H]1[C@@]24OO3 [Dihydroartemisinin]
effect of the G358S mutation in PfATP4 on parasite susceptibility [3]: no effect
